Experimental data from US4109081A, “1-(3,5-Disubstituted-2,4,6-triiodophenyl)-3-(polyhydroxy-alkyl)urea compounds” (Mallinckrodt, Inc., priority 1975, dated 1978).
Values after ≈ are worked out from the molar mass of the structure shown. Read-outs that look alike come from different tables or passages of the source.

Experiments:
[1] = aqueous solubility (solubility of the product in water); format: physicochemical
Swiss Albino mice [2] = assay: Acute Intravenous Toxicity Studies in Mice; format: in vivo, mouse (Swiss Albino, Charles River); conditions: lateral tail vein, iodine concentration 28.2%, pH 7.0-7.2, approximately 1 ml./min., seven day observation
Protocol: (§1) carried out in aqueous solutions of the compounds of Examples IV and V.
Swiss Albino mice (Charles River) were dosed in the lateral tail vein with aqueous solutions of the above-noted iodinated compounds of Examples I, II and III having an iodine concentration of 28.2% with a pH of 7.0-7.2. The solutions were injected at the rate of approximately 1 ml./min. […] The LD50 values were calculated by the method of Litchfield and Wilcoxon (J. of Pharmac. and Exptl. Therap. 96: 99-113, 1949).

Swiss Albino mice [3] = assay: Intracerebral Toxicity in Mice; format: in vivo, mouse (Swiss Albino, Charles River); conditions: intracerebral injection, seven day observation; Example IV at 4.3% iodine, Example V at 13.3% iodine
Protocol: as §1
Swiss Albino mice (charles River) were used. Fixed volumes of aqueous solutions of the iodinated compounds were injected intracerebrally via a 27 gauge needle (1/4 inch in length) according to the method of Haley et al. (Br. J. of Pharmac. 12:12-15, 1957). In the case of the compound of Example IV, a solution of the compound having an iodine concentration of 4.3% was employed and in the case of the compound of Example V, a solution of the compound having an iodine concentration of 13.3% was employed. The animals were observed immediately following injections and daily throughout a seven day observation period. The LD50 values were calculated by the method of Litchfield and Wilcoxon (J. of Pharmac. and Exptl. Therap. 96:99-113, 1949).

Sprague-Dawley rats = assay: Intracisternal Toxicity in Rats; format: in vivo, rat (Sprague-Dawley, Carworth); conditions: two day observation, Example IV at 7.43% iodine, Example V at 13.3% iodine
Description: as §1
Sprague-Dawley (Carworth) rats were used. In the case of the compound of Example IV, a solution of the compound having an iodine concentration of 7.43% was employed and in the case of the compound of Example V, a solution of the compound having an iodine concentration of 13.3% was employed. The method used was a variation of the procedure outlined by Melartin et al. (Invest. Rad. 5: 13-21, 1970). After dosing, the animals were housed individually and observed for immediate reactions and periodically for a two day observation period. The LD50 values were calculated according to the method of Litchfield and Wilcoxon (J. of Pharmac. and Exptl. Therap. 96:99-115, 1949).

dogs = assay: intravenous pyelographic studies in dogs; format: in vivo, dog; conditions: for visualization of kidneys, ureters and urinary bladder: 140 mg. I/kg., dogs
Protocol: The compounds of Examples I, II and III were employed in intravenous pyelographic studies carried out in dogs. At a dosage of 140 mg. […] At a dosage of 167 mg.

[4] = water, read-out: solubility of the product in water

SMILES | solubility [1, 4] [mg/mL] | LD50 I.V. (Mice) (Swiss Albino mice [2]) | LD50 Intracerebral (Mice) (Swiss Albino mice [3]) | LD50 Intracisternal (Rats) (Sprague-Dawley rats) [mg. I/kg. body wt.] | also measured
COc1c(I)cc(I)c(NC(=O)N(C)C[C@H](O)[C@@H](O)[C@H](O)[C@H](O)CO)c1I [3-[3-methoxy-2,4,6-triiodophenyl]-1-methyl-1-(D-gluco-2,3,4,5,6-pentahydroxyhexyl)urea, reference compound] |  |  |  |  | solubility ([1]; insufficiently water-soluble for toxicity testing in aqueous solution, read-out: water solubility): < 10 mg/mL
CNC(=O)c1c(I)c(NC(=O)N(C)C[C@H](O)[C@@H](O)[C@H](O)[C@H](O)CO)c(I)c(C(=O)N(C)C)c1I [Example I, 3-[3-(N,N-Dimethylcarbamyl)-2,4,6-triiodo-5-(N-methylcarbamyl)phenyl]-1-methyl-1-(D-gluco-2,3,4,5,6-pentahydroxylhexyl)urea] | ≥ 1000 | 1,878 mg. I/kg. body wt. | 1,500 mg. I/kg. body wt. | 21 | visualization of kidneys, ureters and urinary bladder (dogs; five minutes after injection): good visualization of kidneys, ureters and urinary bladder
CNC(=O)c1c(I)c(NC(=O)N[C@@H](C=O)[C@@H](O)[C@H](O)[C@H](O)CO)c(I)c(N(C)C(C)=O)c1I [Example III, 5-{3-[2-(D-Gluco-2-deoxy-3,4,5,6-tetrahydroxy-1-oxohexyl)]ureido}-2,4,6-triiodo-N-methyl-3-(N-methylacetamido)-benzamide] | ≥ 1000 | 6,800 mg. I/kg. body wt. | 1,460 mg. I/kg. body wt. | < 40 | visualization of the kidneys and ureters (dogs; 167 mg. I/kg., five minutes after injection, dog): better visualization of the kidneys with some visualization of the ureters; visualization of the kidney (dogs; 167 mg. I/kg., one minute after injection, dog): a shadow of the kidney
CNC(=O)c1c(I)c(NC(=O)N[C@@H](C=O)[C@@H](O)[C@H](O)[C@H](O)CO)c(I)c(C(=O)N(C)C)c1I [Example II] | ≥ 1000 | 4,817 mg. I/kg. body wt. | 1,720 mg. I/kg. body wt. | 17 | visualization of kidneys, ureters and urinary bladder (dogs; five minutes after injection): good visualization of kidneys, ureters and urinary bladder
CNC(=O)c1c(I)c(NC(C)=O)c(I)c(NC(=O)N[C@@H](C=O)[C@@H](O)[C@H](O)[C@H](O)CO)c1I [Example IV] | 180 to 200 (≈ 228 to 253 mM) |  | > 350 mg. I/kg. body wt. | 62 | 
CNC(=O)c1c(I)c(NC(=O)N[C@@H](C=O)[C@@H](O)[C@H](O)[C@H](O)CO)c(I)c(C(=O)NC)c1I [Example V, 5-{3-[2-(D-gluco-2-deoxy-3,4,5,6-tetrahydroxy-1-oxohexyl)]ureido}-2,4,6-tri-iodo-N,N'-dimethylisophthalamide] |  |  | > 899 mg. I/kg. body wt. | > 266 | solubility ([1]; water, depending upon the method employed, read-out: aqueous solubility): 27 to 80 mg/mL (≈ 34.2 to 101 mM)
CNC(=O)c1c(I)c(NC(=O)N[C@@H](CO)[C@@H](O)[C@H](O)[C@H](O)CO)c(I)c(N(CCO)C(C)=O)c1I [Example VI, 3-{3-[1-(D-gluco-2-deoxy-1,3,4,5,6-pentahydroxyhexyl)]ureido}-5-[N-(2-hydroxyethyl)acetamido]-2,4,6-triiodo-N-methylbenzamide] |  |  |  |  | solubility ([1]; water, read-out: water solubility): ~780 mg/mL (≈ 933 mM)
